Laboratory results from paper PMC13110364, “Design, Synthesis, and Biological Evaluation of Novel Triazine‐Based Dual Histone Deacetylase/phosphatidylinositol 3‐kinase Inhibitors for Breast Cancer Therapy” (Chemmedchem, 2026).
pIC50: −log10 of the molar value.

Assays:
class I HDAC (acetyl H3) = experiment: Western blot, acetyl H3 in treated cells; assay type: cell-based; settings: LY2, JIMT1, MDA‐MB‐231 cells, 24 h; seen at 10 µM
Procedure: (§1) FIGURE 4 Cell‐based evaluation of compounds 5a– 5f. Dose‐dependent effects of compound treatment (5a‐5f) on breast cancer cell viability across JIMT1 (A), MDA‐MB‐231 (B), and LY2 (C). Cell‐based evaluation of HDAC and PI3K inhibition by compounds 5b and 5f by Western blot. JIMT1 cells were treated for 24 h with compounds 5b (D) and 5f (E) at the concentrations of 1, 3, and 10 µM or with vehicle control (0.1% DMSO). Protein expression levels were analyzed by western blot using antibodies against acetylated α‐tubulin, acetyl H3 (H3K9Ac and H3K14Ac), phospho‐AKT (p‐AKT), and total AKT. GAPDH served as a loading control.
(§2) To investigate if 5b and 5f were acting as multitarget inhibitors, we evaluated the modulation of HDAC6 and PI3K signaling pathways by western blot analysis (Figure 4D,E). […]
(§3) Total protein samples were extracted from treated cells using a lysis buffer containing 0.1% IGEPAL CA‐630 (I8896, Merck), 0.5% deoxycholic acid (D2510, Merck), and 0.1% SDS (L3771, Merck), freshly supplemented with protease and phosphatase inhibitor cocktail (78442, Thermo Fisher Scientific). Protein concentrations were quantified using the Pierce BCA Protein Assay Kit (23227, Thermo Fisher Scientific) according to the manufacturer's instructions. […] Chemiluminescence signals were detected using the Amersham Imager 680 Imaging System. […]

HDAC1 = HDAC1 (Homo sapiens, UniProt Q13547); experiment: Selectivity profile, single dose 0.5 µM, HDAC1; assay type: biochemical; settings: remaining enzyme activity; single‐dose duplicate mode at 0.5 μM; read-out: Enzyme % activity (relative to DMSO controls) at 0.5 µM, HDAC1
Sequence of HDAC1 (Q13547 whole entry, canonical isoform): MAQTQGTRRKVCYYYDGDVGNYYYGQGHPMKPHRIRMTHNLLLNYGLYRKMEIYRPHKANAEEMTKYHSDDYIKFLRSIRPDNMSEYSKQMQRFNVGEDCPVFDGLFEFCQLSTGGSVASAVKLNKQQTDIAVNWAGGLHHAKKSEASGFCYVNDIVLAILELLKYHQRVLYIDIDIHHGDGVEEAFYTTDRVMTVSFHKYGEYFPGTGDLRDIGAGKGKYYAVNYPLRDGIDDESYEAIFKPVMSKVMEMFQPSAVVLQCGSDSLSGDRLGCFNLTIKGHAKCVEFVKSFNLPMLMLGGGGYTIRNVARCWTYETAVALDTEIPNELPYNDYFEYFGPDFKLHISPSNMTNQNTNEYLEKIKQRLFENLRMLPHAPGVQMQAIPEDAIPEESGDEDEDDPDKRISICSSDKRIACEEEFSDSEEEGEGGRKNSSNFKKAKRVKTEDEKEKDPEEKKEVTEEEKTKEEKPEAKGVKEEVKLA
Procedure: (§4) The inhibitory profiles of 5b and 5f were evaluated against selected HDAC isoforms (HDAC1, HDAC3, HDAC4, HDAC8, and HDAC10) and PI3K isoforms (PI3Kδ, PI3Kγ, and PI3Kβ) at a fixed concentration of 0.5 µM (Table 3). […] While we explored the phenyl ring in the linker region to achieve selectivity for the HDAC6 isoform, we still observed HDAC class I inhibition. […] It is important to highlight that PI3Kδ is mainly expressed in hematopoietic system and plays roles in leukocyte signaling, T‐cell activation, and immune cell trafficking. FDA‐approved drug idelalisib is a selective PI3Kδ inhibitor in B‐cell malignancies; however, this drug is also related to disruption of the immune system, which can lead to immune manifestations, such as infections. In addition, while isoform‐selective PI3K inhibitors are well tolerated, pan‐inhibition of PI3K is less expected that compensatory mechanisms by the action of other PI3Ks can take place. Thus, a more balanced profile of PI3K inhibition can lead to an overall lack of toxicity of PI3K inhibitors.

PI3Kα = PI3Kα (Homo sapiens, UniProt P42336); experiment: PI3Kα inhibition, 10-dose IC50 (Reaction Biology Corporation); assay type: biochemical
Sequence of PI3Kα (P42336 whole entry): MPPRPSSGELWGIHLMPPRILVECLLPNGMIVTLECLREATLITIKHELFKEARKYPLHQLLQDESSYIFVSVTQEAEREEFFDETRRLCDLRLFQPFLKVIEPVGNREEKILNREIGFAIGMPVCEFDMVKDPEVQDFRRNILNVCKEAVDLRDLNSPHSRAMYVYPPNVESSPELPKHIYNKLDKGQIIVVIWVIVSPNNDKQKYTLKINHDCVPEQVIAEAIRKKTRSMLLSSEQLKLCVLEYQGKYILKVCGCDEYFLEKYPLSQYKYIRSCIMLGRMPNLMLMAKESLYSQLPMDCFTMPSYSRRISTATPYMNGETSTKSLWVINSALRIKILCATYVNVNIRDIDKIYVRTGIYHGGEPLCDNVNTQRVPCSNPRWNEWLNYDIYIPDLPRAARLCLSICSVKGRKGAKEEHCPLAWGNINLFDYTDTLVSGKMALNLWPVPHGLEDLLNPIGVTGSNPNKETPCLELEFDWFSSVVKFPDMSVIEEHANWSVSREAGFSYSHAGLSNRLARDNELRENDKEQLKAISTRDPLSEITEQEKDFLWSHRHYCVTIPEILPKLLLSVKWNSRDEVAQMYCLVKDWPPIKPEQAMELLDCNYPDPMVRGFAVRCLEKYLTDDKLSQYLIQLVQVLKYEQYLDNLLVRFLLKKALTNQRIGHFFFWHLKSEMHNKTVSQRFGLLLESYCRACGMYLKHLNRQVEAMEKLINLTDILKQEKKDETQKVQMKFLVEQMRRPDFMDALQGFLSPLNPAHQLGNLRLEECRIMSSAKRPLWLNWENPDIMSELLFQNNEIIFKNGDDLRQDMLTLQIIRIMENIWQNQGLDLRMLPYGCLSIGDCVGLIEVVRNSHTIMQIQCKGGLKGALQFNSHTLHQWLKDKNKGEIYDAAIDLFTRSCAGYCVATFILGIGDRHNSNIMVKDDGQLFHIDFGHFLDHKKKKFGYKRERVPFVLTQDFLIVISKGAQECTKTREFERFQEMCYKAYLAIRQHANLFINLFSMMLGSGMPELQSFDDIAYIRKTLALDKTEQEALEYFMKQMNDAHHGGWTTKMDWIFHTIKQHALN
Sequence of PI3Kα (P27986 whole entry partner): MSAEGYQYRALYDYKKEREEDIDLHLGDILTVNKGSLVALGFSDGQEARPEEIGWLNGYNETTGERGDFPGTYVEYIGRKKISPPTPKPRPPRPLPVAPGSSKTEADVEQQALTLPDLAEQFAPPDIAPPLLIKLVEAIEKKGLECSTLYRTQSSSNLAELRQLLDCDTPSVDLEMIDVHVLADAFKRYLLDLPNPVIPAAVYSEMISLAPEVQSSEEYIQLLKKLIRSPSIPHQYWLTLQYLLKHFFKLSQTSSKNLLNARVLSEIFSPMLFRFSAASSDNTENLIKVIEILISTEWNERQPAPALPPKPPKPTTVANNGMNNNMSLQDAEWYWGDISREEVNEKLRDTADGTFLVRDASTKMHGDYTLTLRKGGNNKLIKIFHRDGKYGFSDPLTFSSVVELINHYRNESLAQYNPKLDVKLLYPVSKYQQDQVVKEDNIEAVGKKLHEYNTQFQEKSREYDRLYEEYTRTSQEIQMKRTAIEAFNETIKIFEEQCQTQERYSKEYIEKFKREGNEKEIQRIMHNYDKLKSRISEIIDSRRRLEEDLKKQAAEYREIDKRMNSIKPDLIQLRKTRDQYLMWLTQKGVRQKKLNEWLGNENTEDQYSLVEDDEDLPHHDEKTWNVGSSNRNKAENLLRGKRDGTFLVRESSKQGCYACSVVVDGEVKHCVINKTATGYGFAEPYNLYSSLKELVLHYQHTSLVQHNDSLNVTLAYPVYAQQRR

HDAC3 = HDAC3 (Homo sapiens, UniProt O15379); experiment: Selectivity profile, single dose 0.5 µM, HDAC3; assay type: biochemical; settings: remaining enzyme activity; single‐dose duplicate mode at 0.5 μM; read-out: Enzyme % activity (relative to DMSO controls) at 0.5 µM, HDAC3
Sequence of HDAC3 (O15379 whole entry): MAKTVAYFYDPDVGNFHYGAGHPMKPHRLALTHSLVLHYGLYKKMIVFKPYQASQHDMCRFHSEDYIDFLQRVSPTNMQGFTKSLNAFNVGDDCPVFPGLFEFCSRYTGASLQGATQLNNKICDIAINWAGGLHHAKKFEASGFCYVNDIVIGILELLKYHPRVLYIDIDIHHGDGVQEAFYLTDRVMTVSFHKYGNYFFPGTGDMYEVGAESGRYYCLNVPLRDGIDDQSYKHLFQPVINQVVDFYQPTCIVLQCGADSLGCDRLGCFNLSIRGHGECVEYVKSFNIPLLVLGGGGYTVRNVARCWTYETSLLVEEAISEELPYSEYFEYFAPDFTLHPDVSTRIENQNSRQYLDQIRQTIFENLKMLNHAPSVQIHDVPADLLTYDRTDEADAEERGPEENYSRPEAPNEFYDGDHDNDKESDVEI
Sequence of HDAC3 (Q9Y618 395-489 partner limits assumed): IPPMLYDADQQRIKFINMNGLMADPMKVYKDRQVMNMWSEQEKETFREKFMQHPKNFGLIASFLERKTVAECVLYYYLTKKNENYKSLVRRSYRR
Procedure: as §4

[1] = tested on: PI3K pathway (phosphorylation of AKT); experiment: Western blot, phospho-AKT in treated cells; assay type: cell-based; settings: LY2, JIMT1, MDA‐MB‐231 cells, 24 h; seen at 10 µM
Procedure: as §1, §2, §3

[2] = tested on: HDAC6 (acetylated α‐tubulin); experiment: Western blot, acetylated α-tubulin in treated cells; assay type: cell-based; settings: LY2, JIMT1, MDA‐MB‐231 cells, 24 h; seen at 3 µM, further increasing at 10 µM
Procedure: as §1, §2, §3

PI3Kγ = PI3Kγ (Homo sapiens, UniProt P48736); experiment: Selectivity profile, single dose 0.5 µM, PI3Kγ; assay type: biochemical; settings: remaining enzyme activity; single‐dose duplicate mode at 0.5 μM; read-out: Enzyme % activity (relative to DMSO controls) at 0.5 µM, PI3Kγ
Sequence of PI3Kγ (P48736 whole entry): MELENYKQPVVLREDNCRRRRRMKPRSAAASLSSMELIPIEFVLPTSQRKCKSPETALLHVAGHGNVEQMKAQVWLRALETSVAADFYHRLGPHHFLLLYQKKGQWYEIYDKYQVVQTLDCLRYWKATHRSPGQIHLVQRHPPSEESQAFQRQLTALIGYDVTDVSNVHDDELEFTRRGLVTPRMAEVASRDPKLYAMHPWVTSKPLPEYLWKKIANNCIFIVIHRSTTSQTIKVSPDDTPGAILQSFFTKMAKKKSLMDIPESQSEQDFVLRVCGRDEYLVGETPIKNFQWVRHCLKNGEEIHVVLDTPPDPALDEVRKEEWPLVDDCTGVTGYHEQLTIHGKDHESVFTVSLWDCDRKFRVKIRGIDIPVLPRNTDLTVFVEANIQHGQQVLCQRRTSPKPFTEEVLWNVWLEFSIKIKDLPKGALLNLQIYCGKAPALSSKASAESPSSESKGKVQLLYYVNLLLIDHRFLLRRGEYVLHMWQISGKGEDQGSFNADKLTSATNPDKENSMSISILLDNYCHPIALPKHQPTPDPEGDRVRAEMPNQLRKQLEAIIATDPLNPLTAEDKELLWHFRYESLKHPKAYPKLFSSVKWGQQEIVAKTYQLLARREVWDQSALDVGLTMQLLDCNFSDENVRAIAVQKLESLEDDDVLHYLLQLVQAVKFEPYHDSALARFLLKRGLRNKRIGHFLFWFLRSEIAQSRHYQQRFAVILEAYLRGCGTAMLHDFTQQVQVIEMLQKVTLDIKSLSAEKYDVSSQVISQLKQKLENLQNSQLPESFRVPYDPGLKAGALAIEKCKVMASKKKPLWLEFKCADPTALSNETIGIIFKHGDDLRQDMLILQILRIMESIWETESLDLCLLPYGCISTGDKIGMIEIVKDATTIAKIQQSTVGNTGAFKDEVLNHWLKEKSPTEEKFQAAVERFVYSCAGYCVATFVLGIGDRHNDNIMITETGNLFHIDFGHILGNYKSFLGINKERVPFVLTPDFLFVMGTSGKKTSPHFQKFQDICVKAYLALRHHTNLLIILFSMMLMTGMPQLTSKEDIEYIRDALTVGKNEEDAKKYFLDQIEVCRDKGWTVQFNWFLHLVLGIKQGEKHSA
Procedure: as §4

MCF‐10A cells = experiment: Cell viability in nontransformed cell line MCF-10A; assay type: cell-based; settings: Homo sapiens
Source text: Thus, further optimization will be required to improve the therapeutic index.
FIGURE 5 Dose‐dependent effects of compound treatment (5b and 5f) on nontransformed breast cell viability across MCF‐10A.

HDAC10 = HDAC10 (Homo sapiens, UniProt Q969S8); experiment: Selectivity profile, single dose 0.5 µM, HDAC10; assay type: biochemical; settings: remaining enzyme activity; single‐dose duplicate mode at 0.5 μM; read-out: Enzyme % activity (relative to DMSO controls) at 0.5 µM, HDAC10
Sequence of HDAC10 (Q969S8 whole entry): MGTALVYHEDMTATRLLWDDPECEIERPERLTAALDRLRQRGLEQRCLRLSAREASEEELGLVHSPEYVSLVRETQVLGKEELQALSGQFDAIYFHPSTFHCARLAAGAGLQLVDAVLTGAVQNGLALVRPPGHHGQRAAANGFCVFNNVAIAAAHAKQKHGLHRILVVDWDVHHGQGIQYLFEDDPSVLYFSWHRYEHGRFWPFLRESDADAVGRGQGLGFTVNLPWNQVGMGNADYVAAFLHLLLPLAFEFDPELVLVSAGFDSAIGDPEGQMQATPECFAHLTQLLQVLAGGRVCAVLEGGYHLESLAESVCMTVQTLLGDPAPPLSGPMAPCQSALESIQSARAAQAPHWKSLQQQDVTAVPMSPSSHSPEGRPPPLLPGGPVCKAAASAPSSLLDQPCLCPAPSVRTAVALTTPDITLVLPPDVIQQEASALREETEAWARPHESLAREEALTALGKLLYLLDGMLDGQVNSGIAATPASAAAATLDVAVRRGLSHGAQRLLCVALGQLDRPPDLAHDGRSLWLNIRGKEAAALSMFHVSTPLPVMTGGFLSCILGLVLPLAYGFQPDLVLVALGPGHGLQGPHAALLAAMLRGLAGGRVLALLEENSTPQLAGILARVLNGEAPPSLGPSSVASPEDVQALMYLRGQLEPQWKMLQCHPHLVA
Procedure: as §4

Row | SMILES | Acetylation of H3, western blot (class I HDAC (acetyl H3)) | remaining activity at 0.5 µM (HDAC1) [%] | IC50 (PI3Kα) [nM] | remaining activity at 0.5 µM (HDAC3) [%] | Phosphorylation of AKT, western blot [1] | Acetylated α‐tubulin level, western blot [2] | remaining activity at 0.5 µM (PI3Kγ) [%] | pIC50 (MCF‐10A cells) | remaining activity at 0.5 µM (HDAC10) [%]
1 | O=C(NO)c1ccc(CNc2nc(-c3cccc(O)c3)nc(N3CCOCC3)n2)cc1 [Compound 5b, N‐Hydroxy‐4‐(((4‐(3‐Hydroxyphenyl)‐6‐Morpholino‐1,3,5‐Triazin‐2‐yl)Amino)Methyl)Benzamide] | increased levels of acetylation of H3 | 35.9 | 17.5 | 22.6 | decreased phosphorylation of AKT | accumulation of acetylated α‐tubulin | 29.2 | > 6.00 | 15.9
2 | COc1ccc(-c2nc(NCc3ccc(C(=O)NO)cc3)nc(N3CCOCC3)n2)cn1 [Compound 5f, N‐Hydroxy‐4‐(((4‐(6‐Methoxypyridin‐3‐yl)‐6‐Morpholino‐1,3,5‐Triazin‐2‐yl)Amino)Methyl)Benzamide] | increased levels of acetylation of H3 | 35.7 | 236 | 26.6 | decreased phosphorylation of AKT | accumulation of acetylated α‐tubulin | 77.7 | > 6.00 | 28.1
